Data set [1] relates to HeLaCAIX^WT versus HeLaCAIX^KO tumors. Kind of data set: NIR imaging of HeLa xenograft tumors in nude mice. The class given is in vivo. The note with it: for compound uptake in HeLaCAIX^WT tumors compared to HeLaCAIX^KO tumors: I.V. 2 mg/kg once, imaged every 24 h. The method, then:
The HeLaCAIX^WT and HeLaCAIX^KO cells were injected subcutaneously (S.Q.) into opposite flanks of nude mice, 3 × 10^6 cells per injection. Once tumors reached the palpable size, we performed imaging using the UVITEC AllianceQ9 Imager system. The images were obtained every 24 h after intravenous (I.V.) compound injection into a tail vein. To analyze fluorescent compound uptake, two best candidate compounds were chosen, AZ21-6 and GZ22-4. Compound GZ22-4 was selected because of the photostability and good quantum yield (Table S1), and the fluorescence maximum of AZ21-6 closely resembled the center of the NIR filter of the imaging system. Both compounds had the best solubility properties and good in vitro binding to cells.
Female nude mice (CR ATH HO Code 24106216), 5–6 weeks old, were obtained from Charles River Laboratories. Animals were housed, bred, and handled in the Department of Animal Models Animal Facility at the Life Sciences Center, Vilnius University, Lithuania, with a 12 h light–dark cycle, at 21–23 °C and 40–60% humidity. Animals were fed with an irradiated cholorophyll-deficient diet (Altromin, #C1086194) and water ad libitum. All experimental procedures conformed to Directive 2010/63/EU requirements and were approved by the Lithuanian State Food and Veterinary Service (Approval no G2-194, 2021-11-09).
Before injection into animals, mycoplasma-free cells in the exponential growth phase were harvested, washed, and resuspended in PBS. 8–12 weeks old female nude mice were inoculated S.Q. with 3 × 10^6 HeLaCAIX^WT cells in 100 μL of PBS into the right flank of the mice, and the same number of HeLaCAIX^KO cells were injected into the left flank of the same mouse. Once tumors reached a suitable size for imaging, GZ22-4 or AZ21-6 compounds were injected I.V. at a dose of 2 mg/kg/dose once. Mice were imaged every 24 h postinjection using isoflurane anesthesia with an Alliance^TM bQ9 Imager system. Images were quantified using the UVIBAND MAX analysis software system. […]

The target of a further data set is T1, human recombinant CAVB (Homo sapiens, UniProt Q9Y2D0).
T1 construct: Most isozymes were truncated, and only the catalytic domains of the proteins were produced; made in house; host or cells: bacterial expression system
T1 sequence (Q9Y2D0 37-296 limits assumed): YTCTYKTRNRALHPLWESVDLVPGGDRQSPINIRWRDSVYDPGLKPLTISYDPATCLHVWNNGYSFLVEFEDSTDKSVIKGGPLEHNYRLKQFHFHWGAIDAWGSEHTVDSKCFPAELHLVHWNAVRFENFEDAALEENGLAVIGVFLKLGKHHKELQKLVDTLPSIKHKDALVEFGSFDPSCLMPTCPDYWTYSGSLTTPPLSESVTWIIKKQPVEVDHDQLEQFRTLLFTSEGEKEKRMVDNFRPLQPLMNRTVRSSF
As to the kind of experiment: Fluorescence-based thermal shift assay (FTSA), CAVB. It counts as binding. The note with it: 37 °C, pH 7.0. The method, then:
(§1) The binding affinities of the four NIR-fluorescent compounds to 12 catalytically active recombinant CA isozymes were determined by the fluorescence-based thermal shift assay (FTSA), and the dissociation constants (Kd’s) at physiological pH (pH 7.0) and 37 °C are listed in Table 1.
(§2) All 12 catalytically active human CA isozymes were prepared recombinantly as previously described. Most isozymes were truncated, and only the catalytic domains of the proteins were produced.[9],[56] All isozymes were expressed in a bacterial expression system except that CAIX was expressed in mammalian cells. The proteins were chromatographically purified via immobilized metal affinity chromatography, ion-exchange, or p-aminomethylbenzenesulfonamide-sepharose affinity chromatography. Protein purity was confirmed by SDS-PAGE, and MW was confirmed by mass spectrometry with 1 Da precision, as predicted from theoretical protein sequence.
(§3) The fluorescence-based thermal shift assay (FTSA) was used to determine the binding affinity of compounds for all catalytically active CA isozymes. […] The CA isozyme melting temperature Tm was determined by following the fluorescence of 8-anilino-1-naphthalenesulfonate (ANS) or Glomelt dye. […]

A further data set has as its target T2, human recombinant CAI (Homo sapiens, UniProt P00915).
T2 construct: made in house; host or cells: bacterial expression system
Kind of data set: Fluorescence-based thermal shift assay (FTSA), CAI. The class given is binding. The note with it: 37 °C, pH 7.0. The method, then:
as §1, §2, §3

Three compounds from publication PMC11191402, “High-Affinity NIR-Fluorescent Inhibitors for Tumor Imaging via Carbonic Anhydrase IX” (Bioconjugate Chemistry, 2024) can be followed below.

What is called pKd is −log10 of the Kd, conventionally taken in molar units.

Molecules are shown by their SMILES. pKd: −log10 of the molar value.

T2 sequence (P00915 whole entry): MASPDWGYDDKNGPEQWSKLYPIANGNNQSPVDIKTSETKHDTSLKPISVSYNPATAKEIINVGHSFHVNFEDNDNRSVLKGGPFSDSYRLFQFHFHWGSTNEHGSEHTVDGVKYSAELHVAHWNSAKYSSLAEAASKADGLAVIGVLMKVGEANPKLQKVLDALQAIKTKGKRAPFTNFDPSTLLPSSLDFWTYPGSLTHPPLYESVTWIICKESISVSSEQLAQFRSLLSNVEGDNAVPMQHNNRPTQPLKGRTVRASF

Consider `CC1(C)C(/C=C/C2=C(Oc3ccc(CCC(=O)NCCOCCOCCOCCOCCOCCOCCOCCOCCOCCOCCOCCNC(=O)CCS(=O)(=O)c4c(F)c(F)c(S(N)(=O)=O)c(F)c4NC4CCCCCCC4)cc3)C(=C/C=C3\N(CCCCS(=O)(=O)[O-])c4ccccc4C3(C)C)/CCC2)=[N+](CCCCS(=O)(=O)[O-])c2ccccc21.[Na+]` [GZ22-4, Sodium 4-((Z)-2-((E)-2-(2-(4-(43-((2-(Cyclooctylamino)-3,5,6-trifluoro-4-sulfamoylphenyl)sulfonyl)-3,41-dioxo-7,10,13,16,19,22,25,28,31,34,37-undecaoxa-4,40-diazatritetracontyl)phenoxy)-3-((E)-2-(3,3-dimethyl-1-(4-sulfonatobutyl)-3H-indol-1-ium-2-yl)vinyl)cyclohex-2-en-1-ylidene)ethylidene)-3,3-dimethylindolin-1-yl)butane-1-sulfonate], for which the “compound uptake in HeLaCAIX^WT tumors compared to HeLaCAIX^KO tumors” value in data set [1] was “preferential uptake”. Besides, in data set [1] (I.V. 2 mg/kg, daily images), the “clearance from nontumor locations” value was “faster clearance from nontumor locations”.

With `CC1(C)C(/C=C/C2=C(NCCCOCCOCCOCCCNC(=O)CCC(=O)NCCS(=O)(=O)c3c(F)c(F)c(S(N)(=O)=O)c(F)c3NC3CCCCCCC3)C(=C/C=C3\N(CCCCS(=O)(=O)[O-])c4ccccc4C3(C)C)/CCC2)=[N+](CCCCS(=O)(=O)[O-])c2ccccc21.[Na+]` [AZ21-6, Sodium 4-((Z)-2-((E)-2-(2-((1-((2-(Cyclooctylamino)-3,5,6-trifluoro-4-sulfamoylphenyl)sulfonyl)-4,7-dioxo-12,15,18-trioxa-3,8-diazahenicosan-21-yl)amino)-3-((E)-2-(3,3-dimethyl-1-(4-sulfonatobutyl)-3H-indol-1-ium-2-yl)vinyl)cyclohex-2-en-1-ylidene)ethylidene)-3,3-dimethylindolin-1-yl)butane-1-sulfonate], the “compound uptake in HeLaCAIX^WT tumors compared to HeLaCAIX^KO tumors” value in data set [1] was “preferential uptake”. Further, the pKd at human recombinant CAVB was 7.30; at human recombinant CAI, 4.70.

Turning to `CC1(C)C(/C=C/C2=C(Oc3cccc(CC(=O)NCCCOCCOCCOCCCNC(=O)CCS(=O)(=O)c4c(F)c(F)c(S(N)(=O)=O)c(F)c4NC4CCCCCCC4)c3)C(=C/C=C3\N(CCCCS(=O)(=O)[O-])c4ccccc4C3(C)C)/CCC2)=[N+](CCCCS(=O)(=O)[O-])c2ccccc21.[Na+]` [GZ21-19, Sodium 4-((Z)-2-((E)-2-(2-(3-(20-((2-(Cyclooctylamino)-3,5,6-trifluoro-4-sulfamoylphenyl)sulfonyl)-2,18-dioxo-7,10,13-trioxa-3,17-diazaicosyl)phenoxy)-3-((E)-2-(3,3-dimethyl-1-(4-sulfonatobutyl)-3H-indol-1-ium-2-yl)vinyl)cyclohex-2-en-1-ylidene)ethylidene)-3,3-dimethylindolin-1-yl)butane-1-sulfonate], on human recombinant CAI, the pKd is 5.00.
